We go through one compound from publication PMC10619693, “Structural identification of catalytic His158 of PtMAC2p from Pseudozyma tsukubaensis, an acyltransferase involved in mannosylerythritol lipids formation” (Frontiers in Bioengineering and Biotechnology, 2023).

This experiment deals with T1, PtMAC2p (Pseudozyma tsukubaensis, UniProt A0A2Z6ERP5).
T1 construct: gene PtMAC2
In words: DTNB (Ellman) assay of CoA release, absorbance at […] nm. Format: biochemical. As to conditions: 0.1 mM lauroyl-CoA; co-substrate 1 mM mono-acylated MEL-D; 1 mM DTNB; 50 mM sodium phosphate pH 7.2, 25 °C. Background: In Ellman's method for cholinesterases, released thiocholine reacts with DTNB.

T1 sequence (A0A2Z6ERP5 1-549): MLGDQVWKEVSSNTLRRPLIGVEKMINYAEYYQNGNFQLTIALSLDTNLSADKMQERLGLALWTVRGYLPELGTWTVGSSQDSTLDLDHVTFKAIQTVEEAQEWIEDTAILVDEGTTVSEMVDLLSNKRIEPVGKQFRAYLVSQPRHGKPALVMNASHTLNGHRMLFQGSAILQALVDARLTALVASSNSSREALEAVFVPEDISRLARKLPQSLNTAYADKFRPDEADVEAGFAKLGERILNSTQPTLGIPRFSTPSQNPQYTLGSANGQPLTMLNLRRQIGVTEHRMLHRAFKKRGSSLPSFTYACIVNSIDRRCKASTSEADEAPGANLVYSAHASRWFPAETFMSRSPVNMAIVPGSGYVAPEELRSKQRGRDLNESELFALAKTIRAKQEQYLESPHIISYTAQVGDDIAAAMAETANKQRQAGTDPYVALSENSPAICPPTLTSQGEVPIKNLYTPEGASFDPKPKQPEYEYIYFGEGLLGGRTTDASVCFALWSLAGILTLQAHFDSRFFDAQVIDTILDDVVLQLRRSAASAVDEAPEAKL

Consider `CCCCCCCCCCCC(=O)SCCNC(=O)CCNC(=O)[C@H](O)C(C)(C)COP(=O)(O)OP(=O)(O)OC[C@H]1O[C@@H](n2cnc3c(N)ncnc32)[C@H](O)[C@@H]1OP(=O)(O)O` [lauroyl-CoA], for which the “DTNB (Ellman) assay of CoA release, absorbance at 412 nm” value is “Purified PtMAC2p catalyzes the transfer of a fatty acid of lauroyl-CoA (C12)”.
